# Results taken from patent US12208108B2, “Drug targets of delayed aging and human brain diseases” (Texas Tech University System, priority 2016, dated 2025).
# Tests used:
# [1] = system: SHSY5Y cells; experiment: Transmission electron microscopy, mitochondrial number and length; assay type: cell-based, Human
# Text: Transmission electron microscopy. To determine the effects of DDQ on mitochondrial number and morphology, and any rescual effects of DDQ on mitochondria in the untreated and Aβ treated cells, the inventors used TEM on untreated, DDQ, Aβ+DDQ and DDQ+Aβ, treated SHSY5Y cells.
# Transmission electron microscopy. To determine the effects of DDQ on the numbers of mitochondria and any rescue effects of DDQ on mitochondria in the mutant SHSY5Y neurons, the inventors used TEM on untreated and treated SHSY5Y cells (as shown in FIG. 3). [Batches 1-5]. All SHSY5Y cells batches 1-5 were fixed in […] sodium cacodylate (pH 7.2), 2.5% glutaraldehyde, 1.6% paraformaldehyde, 0.064% picric acid and 0.1% ruthenium red. They were gently washed and post-fixed for 1 h in 1% osmium tetroxide plus […] potassium ferricyanide, in 100 mm sodium cacodylate, pH 7.2. After a thorough rinsing in water, the SHSY5Y cells were dehydrated, infiltrated overnight in 1:1 acetone:Epon 812 and infiltrated for 1 h with 100% Epon 812 resin. They were then embedded in the resin. After polymerization, 60 to 80 nm thin sections were cut on a Reichert ultramicrotome and stained for 5 min in lead citrate. They were rinsed and post-stained for 30 min in uranyl acetate and then were rinsed again and dried. Electron microscopy was performed at 60 kV on a Philips Morgagne TEM equipped with a CCD, and images were collected at magnifications of ×1000-37 000. The numbers of mitochondria were counted in the SHSY5Y cells batches 1-5, and statistical significance was determined, using one-way ANOVA.
# [2] = system: SHSY5Y cells; experiment: H2O2 production (Amplex Red); assay type: cell-based, Human
# Procedure: Mitochondrial function assays. Hydrogen peroxide production. Using an Amplex® Red H2O2 Assay Kit (Molecular Probes, Eugene, Oreg.), the inventors measured the production of H2O2 in independent experiments (n=4) of SHSY5Y neurons treated 1) with and 2) without DDQ, DDQ treated and then incubated with Aβ, as described in Manczak et al..
# [3] = molecular target: T1, GTPase-Drp1 (Homo sapiens, UniProt O00429); experiment: GTPase-Drp1 activity from Drp1 IP elutes; assay type: cell-based
# T1 construct: endogenous in cells; host or cells: SHSY5Y human neuroblastoma cells
# T1 sequence (O00429 whole entry): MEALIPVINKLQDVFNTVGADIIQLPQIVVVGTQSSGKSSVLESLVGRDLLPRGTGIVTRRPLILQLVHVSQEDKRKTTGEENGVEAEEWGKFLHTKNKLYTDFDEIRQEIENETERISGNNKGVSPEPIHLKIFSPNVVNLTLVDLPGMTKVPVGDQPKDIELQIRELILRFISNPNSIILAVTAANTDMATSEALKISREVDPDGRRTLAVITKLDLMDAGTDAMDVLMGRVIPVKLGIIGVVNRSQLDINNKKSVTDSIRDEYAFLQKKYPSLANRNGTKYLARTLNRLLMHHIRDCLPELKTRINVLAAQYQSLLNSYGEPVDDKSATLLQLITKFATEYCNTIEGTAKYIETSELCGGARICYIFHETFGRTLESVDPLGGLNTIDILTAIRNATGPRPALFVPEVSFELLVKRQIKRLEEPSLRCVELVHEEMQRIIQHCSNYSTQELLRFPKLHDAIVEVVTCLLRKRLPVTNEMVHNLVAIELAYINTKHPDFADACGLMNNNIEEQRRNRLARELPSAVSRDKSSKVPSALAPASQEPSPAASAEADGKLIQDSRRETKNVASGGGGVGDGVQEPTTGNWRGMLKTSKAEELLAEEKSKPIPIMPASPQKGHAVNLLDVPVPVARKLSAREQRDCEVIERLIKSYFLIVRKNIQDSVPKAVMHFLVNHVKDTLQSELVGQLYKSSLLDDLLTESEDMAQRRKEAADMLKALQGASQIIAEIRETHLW
# Procedure: GTPase-Drp1 activity: To determine whether Aβ affects GTPase-Drp1 activity in cells that treated with Aβ incubation, the inventors measured GTPase-Drp1 activity from Drp1 IP elutes of all cell treatments.
# [4] = system: SHSY5Y cells; experiment: Immunofluorescence analysis of Drp1, synaptophysin and PSD95; assay type: cell-based, Human
# Procedure: Immunofluorescence analysis of Drp1, synaptophysin and PSD95. To determine the effect of Aβ and DDQ on Drp1, synaptophysin and PSD95 levels and localizations, immunofluorescence analysis was performed in cells treated as shown in FIG. 7.
# Immunofluorescence analysis. To study immune-reactivity of proteins of interest, cells were grown on coverslips using regular cell culture medium and treated as shown in strategy FIG. 3 and performed immunofluorescence analysis using the antibodies in these treated and untreated cells as described by Manzcak et al. Cells were washed with warm PBS, fixed in freshly prepared 4% paraformaldehyde in PBS for 10 min, and then washed with PBS and permeabilized with 0.1% Triton-X100 in PBS. They were blocked with 1% blocking solution (Invitrogen) for 1 hr at room temperature. All neurons were incubated overnight with primary antibodies. The neurons were incubated with appropriate secondary antibodies. The cells were washed neurons 3 times with PBS, and slides were mounted. Photographs were taken with a multiphoton laser scanning microscope system (ZeissMeta LSM510). To quantify the immunoreactivity of proteins of interest, for each treatment 10-15 photographs were taken at ×20 magnification.
# [5] = Aβ + DDQ (Aβ1-42 20 μM 6 hrs, then DDQ 24 hrs) vs untreated cells
# [6] = DDQ 250 nM 24 hrs vs untreated cells
# [7] = DDQ + Aβ (DDQ 24 hrs, then Aβ1-42 6 hrs) vs untreated cells
# [8] = DDQ post-treated (Aβ + DDQ) vs cells treated with Aβ alone
# [9] = DDQ-pre treated (DDQ + Aβ) vs cells treated with Aβ alone
# [10] = Aβ + DDQ (Aβ1-42 6 hrs, then DDQ 24 hrs) vs cells incubated with Aβ
# [11] = DDQ + Aβ (DDQ 24 hrs, then Aβ1-42 6 hrs) vs cells incubated with Aβ
# [12] = Aβ + DDQ (Aβ1-42 6 hrs, then DDQ 24 hrs) vs Aβ treated cells
# [13] = DDQ + Aβ (DDQ 24 hrs, then Aβ1-42 6 hrs) vs Aβ treated cells
compound,measurement,setting,value
"CCOP(=O)(OCC)C(NCCc1ccc(O)c(O)c1)c1ccnc2ccccc12 (centres unmarked) [DDQ, diethyl(3,4-dihydroxyphenethylamine)(quinolin-4-yl)methylphosphonate]",mitochondrial length,[1]; [5],not significantly changed
same,number of mitochondria,[1]; [5],approximately equal number
same,mitochondrial length,[1]; [6],significantly increased
same,number of mitochondria,[1]; [6],reduced
same,mitochondrial length,[1]; [7],not significantly changed
same,number of mitochondria,[1]; [7],approximately equal number
same,mitochondrial length,[1]; [8],significantly increased
same,number of mitochondria,[1]; [8],significantly reduced
same,mitochondrial length,[1]; [9],significantly increased
same,number of mitochondria,[1]; [9],significantly reduced
same,H2O2 levels,[2]; [5],Significantly increased levels
same,H2O2 levels,[2]; [10],significantly reduced
same,H2O2 levels,[2]; [6],significantly decreased levels
same,H2O2 levels,[2]; [11],significantly reduced
same,H2O2 levels,[2]; [7],Significantly increased levels
same,GTPase-Drp1 activity,[3]; [5],Significantly increased
same,GTPase-Drp1 activity,[3]; [10],reduced
same,GTPase-Drp1 activity,[3]; [6],decreased levels
same,GTPase-Drp1 activity,[3]; [11],reduced
same,Drp1 levels (immunofluorescence),[4]; [12],Significantly reduced levels
same,PSD95 levels (immunofluorescence),[4]; [12],increased
same,synaptophysin levels (immunofluorescence),[4]; [12],increased
same,Drp1 levels (immunofluorescence),[4]; [6],"decreased Drp1 levels were found in DDQ treated cells relative to untreated cells, but this was not significant"
same,Drp1 levels (immunofluorescence),[4]; [13],Significantly reduced levels
same,PSD95 levels (immunofluorescence),[4]; [13],increased
same,synaptophysin levels (immunofluorescence),[4]; [13],increased
